The source of these data is patent publication US12030940B2, “Immunotherapeutic tumor treatment method” (Nektar Therapeutics, priority 2017, dated 2024).

This assay has as its system B16F10 mouse melanoma tumors. The experiment in a line: Immune cells in tumor microenvironment by flow cytometry, subcutaneous B16F10 melanoma mice. Type of assay: in vivo. (Flow cytometry measures light scatter and fluorescence of single cells or particles in a stream.)

With aldesleukin, for the setting “5 and 7 days after treatment initiation”, the “activated natural killer (NK) cells” value is recorded as “increased”. Besides, under “by day 7, single dose RSLAIL-2 or 5 doses aldesleukin”, the “ratio of CD8/Treg in the tumor” value is on record as 18. Under “relative to vehicle”, the “total and memory CD8 T cells as percentage of tumor-infiltrating lymphocytes” value is given as “transient”. Also, the “percentage of Tregs (FoxP3+ subset of CD4) in tumor” value (relative to vehicle, days 5, 7, 10) was “modest”.
